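Compound exposure: 48 hours, 5 concentrations, 96-well plates. Here, GI50 denotes the concentration required for 50% inhibition of growth. TGI: concentration producing complete growth inhibition.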
Columns and labels:
Test in all cases: NCI tumour cell line growth inhibition, 48 h
NCI-H522 lung = test system: NCI-H522 lung
K-562 leukemia = test system: K-562 leukemia
OVCAR-5 ovarian = test system: OVCAR-5 ovarian
OVCAR-3 ovarian = test system: OVCAR-3 ovarian
UO-31 renal = test system: UO-31 renal
KM12 colon = test system: KM12 colon
SR leukemia = test system: SR leukemia
SNB-19 CNS = test system: SNB-19 CNS
HCT-116 colon = test system: HCT-116 colon
RPMI-8226 leukemia = test system: RPMI-8226 leukemia

SMILES	GI50 (NCI-H522 lung)	TGI (NCI-H522 lung)	GI50 (K-562 leukemia)	GI50 (OVCAR-5 ovarian)	TGI (OVCAR-5 ovarian)	GI50 (OVCAR-3 ovarian)	TGI (OVCAR-3 ovarian)	GI50 (UO-31 renal)	TGI (UO-31 renal)	GI50 (KM12 colon)	TGI (KM12 colon)	GI50 (SR leukemia)	TGI (SR leukemia)	GI50 (SNB-19 CNS)	TGI (SNB-19 CNS)	GI50 (HCT-116 colon)	TGI (HCT-116 colon)	GI50 (RPMI-8226 leukemia)	TGI (RPMI-8226 leukemia)	TGI (K-562 leukemia)
CC[C@@]1(OC(=O)CN)C(=O)OCc2c1cc1n(c2=O)Cc2c-1nc1cc3c(cc1c2CCl)OCO3	0.0257 µM	2.19 µM	0.0642 µM	1.03 µM	13 µM	0.372 µM	4.1 µM	< 0.01 µM	1.44 µM	0.12 µM	0.39 µM	< 0.01 µM	> 100 µM	< 0.01 µM	13.7 µM	< 0.01 µM	> 100 µM	0.0374 µM	0.597 µM	–
Cc1cc(Cl)ccc1OCC(=O)Nc1nc(N)nc(N)n1	–	> 100 µM	–	–	> 100 µM	–	> 100 µM	–	> 100 µM	–	> 100 µM	–	> 100 µM	–	> 100 µM	–	> 100 µM	–	> 100 µM	> 100 µM
O=C1C2=C(C(=O)c3cnccc31)C1C=CC2CC1 (stereo not drawn)	1.96 µM	4.1 µM	1.64 µM	1.93 µM	3.71 µM	1.85 µM	3.66 µM	1.95 µM	3.69 µM	2.65 µM	6.66 µM	3.22 µM	> 21.2 µM	5.03 µM	9.41 µM	1.65 µM	3.03 µM	2.28 µM	5.59 µM	–
CN(C)c1nc(=NCc2ccco2)ss1	–	3.11 µM	–	–	> 55.6 µM	–	63 µM	–	50.1 µM	–	> 55.7 µM	–	15.3 µM	–	> 80.4 µM	–	35 µM	–	36.3 µM	> 90.8 µM
NC(=O)c1cc(N(CCO)CCO)c([N+](=O)[O-])cc1[N+](=O)[O-]	–	> 100 µM	–	–	> 100 µM	–	> 100 µM	–	> 100 µM	–	> 100 µM	–	> 100 µM	–	> 100 µM	–	> 100 µM	–	> 100 µM	> 100 µM
c1cc(-c2nnc(SSc3ncnc4nc[nH]c34)o2)ccn1	1.63 µM	> 100 µM	0.351 µM	3.1 µM	> 100 µM	0.319 µM	1.73 µM	0.742 µM	> 100 µM	2.61 µM	> 100 µM	0.576 µM	> 100 µM	78.4 µM	> 100 µM	2 µM	> 100 µM	1.32 µM	> 100 µM	> 100 µM
O=c1cc(-c2ccc(O)cc2)oc2cc(O[C@@H]3O[C@H](CO)[C@@H](O)[C@H](O)[C@H]3O)cc(O)c12	–	> 100 µM	–	–	> 100 µM	–	> 100 µM	–	> 100 µM	–	> 100 µM	–	> 100 µM	–	> 100 µM	–	> 100 µM	–	> 100 µM	> 100 µM
O=C(C#Cc1ccccc1)N1c2ccccc2CC1c1c[nH]c2ccccc12 (stereo not drawn)	–	24.1 µM	–	–	64.4 µM	–	32.1 µM	–	> 100 µM	–	31.5 µM	–	45.3 µM	–	> 100 µM	–	26.5 µM	–	43.2 µM	49 µM

Source: PubChem BioAssay (NCI)
